According to PubChem BioAssay AID330 (DTP/NCI, 2004):
“And” between values parts separate entries of the source, which are not always exact repeats. Equal values may be shown once. Inconclusive results and toxic doses are left out. The calls were made as follows: active = survival T/C of 150% or more; inactive = T/C below 125% in these data.

Tested on: P388 leukemia ip, CD2F1 mice, survival T/C
Assay: NCI In Vivo Anticancer Drug Screen. Data for tumor model P388 Leukemia (intraperitoneal) in CD2F1 (CDF1) mice
Conditions: higher = longer survival
Procedure, shortened: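 Mice carrying the transplanted tumor received test compound or vehicle. Survival was recorded in each group, and the value is the treated-group measurement divided by that of the vehicle-treated control group.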

[1] = endpoint: median survival time, dose: 6.25 mg/kg/injection, schedule: Q01DX009 (ip), vehicle: saline with Tween-80
[2] = endpoint: median survival time, dose: 12.5 mg/kg/injection, schedule: Q01DX009 (ip), vehicle: saline with Tween-80
[3] = endpoint: median survival time, dose: 25.0 mg/kg/injection, schedule: Q01DX009 (ip), vehicle: saline with Tween-80
[4] = endpoint: median survival time, dose: 50.0 mg/kg/injection, schedule: Q01DX009 (ip), vehicle: saline with Tween-80
[5] = endpoint: median survival time, dose: 50.0 mg/kg/injection, schedule: Q01DX009 (ip), vehicle: saline
[6] = endpoint: median survival time, dose: 50.0 mg/kg/injection, schedule: Q01DX005 (ip), vehicle: saline with Tween-80
[7] = endpoint: median survival time, dose: 100.0 mg/kg/injection, schedule: Q01DX005 (ip), vehicle: saline with Tween-80
[8] = endpoint: median survival time, dose: 200.0 mg/kg/injection, schedule: Q01DX005 (ip), vehicle: saline with Tween-80
[9] = endpoint: median survival time, dose: 6.25 mg/kg/injection, schedule: Q01DX009 (ip), vehicle: Klucel (hydroxypropylcellulose) (HPC)
[10] = endpoint: median survival time, dose: 12.5 mg/kg/injection, schedule: Q01DX009 (ip), vehicle: Klucel (hydroxypropylcellulose) (HPC)
[11] = endpoint: median survival time, dose: 50.0 mg/kg/injection, schedule: Q01DX005 (ip), vehicle: Klucel (hydroxypropylcellulose) (HPC)
[12] = endpoint: median survival time, dose: 100.0 mg/kg/injection, schedule: Q01DX005 (ip), vehicle: Klucel (hydroxypropylcellulose) (HPC)
[13] = endpoint: median survival time, dose: 200.0 mg/kg/injection, schedule: Q01DX005 (ip), vehicle: Klucel (hydroxypropylcellulose) (HPC)
[14] = endpoint: median survival time, dose: 1.25 mg/kg/injection, schedule: Q01DX009 (ip), vehicle: water
[15] = endpoint: median survival time, dose: 2.5 mg/kg/injection, schedule: Q01DX009 (ip), vehicle: water
[16] = endpoint: median survival time, dose: 5.0 mg/kg/injection, schedule: Q01DX009 (ip), vehicle: water
[17] = endpoint: median survival time, dose: 10.0 mg/kg/injection, schedule: Q01DX009 (ip), vehicle: water
[18] = endpoint: median survival time, dose: 25.0 mg/kg/injection, schedule: Q01DX005 (ip), vehicle: Klucel (hydroxypropylcellulose) (HPC)

Measured: T/C

[CH3][Sn]1([CH3])[O]P(=O)(c2ccccc2)[O]1
inactive: [1] 99 % of control | endpoint: median survival time, dose: 6.25 mg/kg/injection, schedule: Q01DX009 (ip), vehicle: saline 110 % of control | [2] 96 % of control | endpoint: median survival time, dose: 12.5 mg/kg/injection, schedule: Q01DX009 (ip), vehicle: saline 112 % of control | [3] 107 % of control | endpoint: median survival time, dose: 25.0 mg/kg/injection, schedule: Q01DX009 (ip), vehicle: saline 119 % of control | [4] 105 % of control | [5] 112 % of control and 120 % of control

CC(CC(=O)c1ccccc1)=NCCCCN=C(C)CC(=O)c1ccccc1
inactive: endpoint: median survival time, dose: 25.0 mg/kg/injection, schedule: Q04DX002 (ip), vehicle: saline with Tween-80 104 % of control | endpoint: median survival time, dose: 25.0 mg/kg/injection, schedule: Q04DX003 (ip), vehicle: saline with Tween-80 101 % of control | [6] 91 % of control | endpoint: median survival time, dose: 50.0 mg/kg/injection, schedule: Q04DX002 (ip), vehicle: saline with Tween-80 96 % of control | endpoint: median survival time, dose: 50.0 mg/kg/injection, schedule: Q04DX003 (ip), vehicle: saline with Tween-80 95 % of control | [7] 95 % of control | endpoint: median survival time, dose: 100.0 mg/kg/injection, schedule: Q04DX002 (ip), vehicle: saline with Tween-80 105 % of control | endpoint: median survival time, dose: 100.0 mg/kg/injection, schedule: Q04DX003 (ip), vehicle: saline with Tween-80 92 % of control | [8] 88 % of control | endpoint: median survival time, dose: 200.0 mg/kg/injection, schedule: Q04DX002 (ip), vehicle: saline with Tween-80 98 % of control

CN1C(c2ccccc2)C2CSCC(C2O)C1c1ccccc1 (stereo not given)
inactive: endpoint: median survival time, dose: 100.0 mg/kg/injection, schedule: Q04DX003 (ip), vehicle: suspension in saline 106 % of control | endpoint: median survival time, dose: 200.0 mg/kg/injection, schedule: Q04DX003 (ip), vehicle: suspension in saline 100 % of control | endpoint: median survival time, dose: 400.0 mg/kg/injection, schedule: Q04DX003 (ip), vehicle: suspension in saline 98 % of control

CCCCOB(CI)OCCCC
inactive: endpoint: median survival time, dose: 6.25 mg/kg/injection, schedule: Q04DX003 (ip), vehicle: saline 110 % of control | endpoint: median survival time, dose: 12.5 mg/kg/injection, schedule: Q04DX003 (ip), vehicle: saline 100 % of control | endpoint: median survival time, dose: 25.0 mg/kg/injection, schedule: Q04DX003 (ip), vehicle: saline 110 % of control

CC(C)(C)c1ccnc(N=C2N=C(Nc3cc(C(C)(C)C)ccn3)c3ccccc32)c1
inactive: [4] 89 % of control | endpoint: median survival time, dose: 100.0 mg/kg/injection, schedule: Q01DX009 (ip), vehicle: saline with Tween-80 89 % of control

CSc1nc2cc(S(=O)(=O)C(F)F)ccc2s1
inactive: [9] 94 % of control | [10] 94 % of control

CN(C)c1nnnn1Cc1ccccc1
inactive: [11] 97 % of control | [12] 97 % of control | [13] 106 % of control

Cc1ccc(S(=O)(=O)C(c2ccccc2)C(Br)C(=O)c2ccccc2)cc1 (stereo not given)
inactive: endpoint: median survival time, dose: 100.0 mg/kg/injection, schedule: Q04DX003 (ip), vehicle: saline 87 % of control | endpoint: median survival time, dose: 200.0 mg/kg/injection, schedule: Q04DX003 (ip), vehicle: saline 88 % of control

O=C(OC(C(=O)O)c1ccccc1)c1ccc([N+](=O)[O-])cc1 (stereo not given)
inactive: endpoint: median survival time, dose: 75.0 mg/kg/injection, schedule: Q01DX001 (ip), vehicle: Klucel (hydroxypropylcellulose) (HPC) 89 % of control | endpoint: median survival time, dose: 150.0 mg/kg/injection, schedule: Q01DX001 (ip), vehicle: Klucel (hydroxypropylcellulose) (HPC) 103 % of control | endpoint: median survival time, dose: 300.0 mg/kg/injection, schedule: Q01DX001 (ip), vehicle: Klucel (hydroxypropylcellulose) (HPC) 95 % of control

CCOC(=O)C(C(=O)OCC)=C1c2c(ccc(OC)c2OC)C=C2c3cc4c(cc3CCN21)OCO4
inactive: endpoint: median survival time, dose: 0.63 mg/kg/injection, schedule: Q01DX009 (ip), vehicle: water 97 % of control | [14] 100 % of control | [15] 106 % of control | [16] 117 % of control | [17] 124 % of control

O=C1c2c(O)ccc(O)c2C(=O)c2c(NCCCCCO)ccc(NCCCCCO)c21
inactive: endpoint: median survival time, dose: 20.0 mg/kg/injection, schedule: Q01DX009 (ip), vehicle: Klucel (hydroxypropylcellulose) (HPC) 94 % of control | endpoint: median survival time, dose: 40.0 mg/kg/injection, schedule: Q01DX009 (ip), vehicle: Klucel (hydroxypropylcellulose) (HPC) 89 % of control | endpoint: median survival time, dose: 80.0 mg/kg/injection, schedule: Q01DX009 (ip), vehicle: Klucel (hydroxypropylcellulose) (HPC) 93 % of control | endpoint: median survival time, dose: 160.0 mg/kg/injection, schedule: Q01DX009 (ip), vehicle: Klucel (hydroxypropylcellulose) (HPC) 93 % of control | endpoint: median survival time, dose: 320.0 mg/kg/injection, schedule: Q01DX009 (ip), vehicle: Klucel (hydroxypropylcellulose) (HPC) 111 % of control

CC12CC3CC(O)(C1)CC(O)(C3)C2
inactive: [5] 100 % of control | endpoint: median survival time, dose: 100.0 mg/kg/injection, schedule: Q01DX009 (ip), vehicle: saline 100 % of control | endpoint: median survival time, dose: 200.0 mg/kg/injection, schedule: Q01DX009 (ip), vehicle: saline 102 % of control

Brc1cc2c(cc1C=Nc1ccc(OCc3ccccc3)cc1)OCO2
inactive: endpoint: median survival time, dose: 25.0 mg/kg/injection, schedule: Q01DX009 (ip), vehicle: other 98 % of control | endpoint: median survival time, dose: 50.0 mg/kg/injection, schedule: Q01DX009 (ip), vehicle: other 103 % of control | endpoint: median survival time, dose: 100.0 mg/kg/injection, schedule: Q01DX009 (ip), vehicle: other 97 % of control | endpoint: median survival time, dose: 200.0 mg/kg/injection, schedule: Q01DX009 (ip), vehicle: other 95 % of control | endpoint: median survival time, dose: 400.0 mg/kg/injection, schedule: Q01DX009 (ip), vehicle: other 86 % of control

CCOC(=CP(=O)(c1ccccc1)c1ccccc1)OCC
inactive: endpoint: median survival time, dose: 50.0 mg/kg/injection, schedule: Q01DX005 (ip), vehicle: distilled water + Tween-80 + alcohol 106 % of control | endpoint: median survival time, dose: 100.0 mg/kg/injection, schedule: Q01DX005 (ip), vehicle: distilled water + Tween-80 + alcohol 105 % of control | endpoint: median survival time, dose: 200.0 mg/kg/injection, schedule: Q01DX005 (ip), vehicle: distilled water + Tween-80 + alcohol 100 % of control

Cn1cc(C2NC(=O)c3ccccc3N2)c2ccccc21 (stereo not given)
inactive: [18] 102 % of control | [11] 106 % of control | endpoint: median survival time, dose: 88.0 mg/kg/injection, schedule: Q01DX005 (ip), vehicle: Klucel (hydroxypropylcellulose) (HPC) 113 % of control | [12] 115 % of control

Cc1cccc(Nc2ccccc2C(=O)O)c1C
inactive: [1] 103 % of control | [2] 98 % of control | [3] 111 % of control | [4] 101 % of control

COc1ccc2cc3[n+](cc2c1OC)CCc1cc2c(cc1-3)OCO2
inactive: [14] 99 % of control and 110 % of control | [15] 105 % of control | endpoint: median survival time, dose: 3.13 mg/kg/injection, schedule: Q01DX009 (ip), vehicle: Klucel (hydroxypropylcellulose) (HPC) 95 % of control | [16] 110 % of control and 119 % of control | [9] 107 % of control | [17] 110 % of control | [10] 109 % of control | endpoint: median survival time, dose: 20.0 mg/kg/injection, schedule: Q01DX009 (ip), vehicle: water 119 % of control

CNC(=O)c1ccccc1CNC(=S)Nc1cccc(C)c1
inactive: [11] 98 % of control | [12] 98 % of control | [13] 95 % of control

CS(=O)(=O)OCCCN(CCCOS(C)(=O)=O)CCCN1CCOCC1
active: endpoint: mean survival time, dose: 20.0 mg/kg/injection, schedule: Q01DX009 (ip), vehicle: saline 247 % of control | endpoint: mean survival time, dose: 40.0 mg/kg/injection, schedule: Q01DX009 (ip), vehicle: saline 238 % of control | endpoint: mean survival time, dose: 60.0 mg/kg/injection, schedule: Q01DX009 (ip), vehicle: saline 263 % of control | endpoint: median survival time, dose: 20.0 mg/kg/injection, schedule: Q01DX009 (ip), vehicle: saline 227 % of control | endpoint: median survival time, dose: 40.0 mg/kg/injection, schedule: Q01DX009 (ip), vehicle: saline 222 % of control | endpoint: median survival time, dose: 60.0 mg/kg/injection, schedule: Q01DX009 (ip), vehicle: saline 254 % of control

COc1cc(OC)c(NC(=O)C(Sc2nc(C)cc(C)c2C#N)c2ccccc2)cc1Cl (stereo not given)
inactive: endpoint: median survival time, dose: 12.5 mg/kg/injection, schedule: Q01DX005 (ip), vehicle: Klucel (hydroxypropylcellulose) (HPC) 89 % of control | [18] 92 % of control and 93 % of control | [11] 100 % of control and 93 % of control | [12] 98 % of control | [13] 87 % of control

c1ccc(C2=NC(c3ccccc3)=NS(S3=NC(c4ccccc4)=NC(c4ccccc4)=N3)=N2)cc1 (stereo not given)
inactive: [6] 106 % of control | [7] 90 % of control | [8] 88 % of control
